From patent US20240010635A1, “NOVEL INDIRUBIN DERIVATIVES HAVING HETEROBICYCLIC MOIETIES AND THE USE THEREOF” (priority 2022, published 2024)

Tests used:
[1] = target: T1, FLT3 WT (Homo sapiens, UniProt P36888); assay: ADP-Glo kinase assay, FLT3 WT; assay type: biochemical; settings: recombinant FLT3, ADP-Glo, 120 min room temperature; read-out: Enzyme activity (IC50, nM) FLT3 WT
T1 construct: Recombinant proteins containing the FLT3 and FLT3 (D835Y) domains were purchased from Promega; purchased Promega V4064
T1 sequence (P36888 610-943 limits assumed): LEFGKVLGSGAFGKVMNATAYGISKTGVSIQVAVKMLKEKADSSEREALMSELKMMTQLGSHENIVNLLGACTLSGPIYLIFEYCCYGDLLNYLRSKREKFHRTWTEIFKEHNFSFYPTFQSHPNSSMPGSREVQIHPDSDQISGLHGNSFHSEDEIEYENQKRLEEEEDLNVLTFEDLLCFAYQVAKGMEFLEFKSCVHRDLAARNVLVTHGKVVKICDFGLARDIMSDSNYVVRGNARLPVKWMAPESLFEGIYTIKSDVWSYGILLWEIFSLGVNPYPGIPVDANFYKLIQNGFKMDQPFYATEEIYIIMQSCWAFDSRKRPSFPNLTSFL
Description: FLT3 activity inhibition was measured by ADP-Glo kinase assay (Promega, cat #V9101). ADP-Glo kinase analysis method is an emission ADP detect method which measures kinase activity by quantification of ADP amount produced during kinase reaction and provides uniform high-throughput screening method.
(§1) Analysis performed in two steps. First, after kinase reaction, ADP-Glo™ reagent of equal volume was added to finish kinase reaction, and then the rest ATP was exhausted. Second, Kinase Detection Reagent was added to convert ADP to ATP and newly synthesized ATP was measured by luciferase/luciferin reaction at the same time. Generated light was measured by using luminometer. The measured luminescence amount can be applied to the ATP→ADP standard conversion curve to confirm the correlation with the ADP concentration.
Recombinant proteins containing the FLT3 and FLT3 (D835Y) domains were purchased from Promega (cat #V4064, cat #V4514), respectively. According to the manufacturer's instructions, optimal enzyme, ATP, and substrate concentration were established using the ADP-Glo™ Kinase Assay (Promega, USA). Kinase reaction buffer 5× (200 mM Tris-HCl, pH 7.5, 100 mM MgCl2, 0.5 mg/ml BSA) was diluted and used, and the diluted compound of the present invention (5×, 1 μl), FLT3 enzyme or FLT3/D835Y enzyme (2.5×, 2 μl) and substrate/ATP mixture (2.5×, 2 μl), were mixed sequentially and reacted at room temperature for 120 minutes. Then, ADP-Glo™ Reagent (5 μl) was added and reacted for 40 min at room temperature. Finally, after adding a reagent for detection (Kinase Detection Reagent, 10 μl), reacting at room temperature for 30 min, and then phosphorylation of substrate peptide was measured by measuring luciferase signal (Integration time 0.5-1 second) using SpectraMax ID5 reader (Molecular Devices LLC., San Jose, CA, USA). IC50 was calculated by nonlinear regression using Prism version 5.01 (GrapghPad).

[2] = target: T2, RET WT (Homo sapiens, UniProt P07949); assay: ADP-Glo kinase assay, RET WT; assay type: biochemical; settings: recombinant RET wt, 120 min room temperature, read-out: Enzyme activity (IC50, nM) RET WT
T2 construct: Recombinant proteins containing RET wt, RET (M918T) and RET (V804L) domains were purchased from Promega; purchased Promega V8061
T2 sequence (P07949 724-1016 limits assumed): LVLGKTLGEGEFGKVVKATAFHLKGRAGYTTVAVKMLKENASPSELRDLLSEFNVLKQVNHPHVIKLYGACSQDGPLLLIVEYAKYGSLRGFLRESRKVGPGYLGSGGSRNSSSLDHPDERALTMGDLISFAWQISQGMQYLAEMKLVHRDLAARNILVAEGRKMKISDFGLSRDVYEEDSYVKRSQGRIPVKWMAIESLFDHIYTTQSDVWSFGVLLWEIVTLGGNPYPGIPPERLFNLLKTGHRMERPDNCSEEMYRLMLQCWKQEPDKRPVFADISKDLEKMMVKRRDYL
Description: as §1
Recombinant proteins containing RET wt, RET (M918T) and RET (V804L) domains were purchased from Promega (cat #V8061, cat #VA7274, cat #V4473), respectively. According to the manufacturer's instructions, optimal enzyme, ATP, and substrate concentration were established using ADP-Glo™ Kinase Assay (Promega, USA). […] Then, ADP-Glo™ Reagent (5 μl) was added and reacted at room temperature for further 40 min. Lastly, Kinase Detection Reagent (10 μl) was added and reacted for 30 min more at room temperature, and then phosphorylation of substrate peptide was measured by measuring luciferase signal (Integration time 0.5-1 second) using SpectraMax ID5 reader (Molecular Devices LLC., San Jose, CA, USA). IC50 was calculated by nonlinear regression using Prism version 5.01 (GrapghPad).

[3] = test system: MV4-11; assay: Cell proliferation inhibition in AML cell line MV4-11 (Alamar Blue); assay type: cell-based; settings: Homo sapiens, MV4-11, 72 hours, read-out: Cell proliferation inhibitory activity (GI50) MV4-11
Description: Cell proliferation inhibition experiments on acute myeloid leukemia (AML) cell lines tested FLT3 inhibitory activity using MV4-11, Molm-13, and Molm-14 cells, which are FLT3-ITD-expressed AML cell lines. The origin of all cell lines is human-derived cell lines, and the place of purchase and culture conditions of each cell line are as follows.
MV4-11 cells were purchased form the American Type Culture Collection (ATCC, Rockville, MD, USA, cat #CRL-9591), Molm-13 (DSMZ, cat #ACC554), Molm-14 (DSMZ, cat #ACC777), and then cultured in RPMI 1640 medium (Corning Co. 10-040-CV) supplemented with 10% fetal bovine serum, 1% penicillin/streptomycin and 4 mM L-glutamine (Life Technology, GrandIsland, NY).
Cell viability was evaluated by Resazurin redox-based analysis method with Alamar Blue Assay Kit (Invitrogen, USA). Specifically, for MV4-11, Molm-13 and Molm-14 cells, 8000 cells were plated on 384-well plates in 45 μl of medium. Compounds were treated with dimethyl sulfoxide (DMSO) as a negative control group. After 3 days (72 hours) of compound addition, 5 μl of Alamar Blue kit reagent was added to each well of 384-well plate and incubated at 37° C. for 2 hours in a humidified CO2 incubator. After incubation, fluorescence density (Flu) was measured at a wavelength of 544 nm and 590 nm using SpectraMax iD3 Multi Mode Microplate Reader (Molecular Devices, ID3-STD). GI50 was calculated by nonlinear regression using Prism version 5.01 (GraphPad, LaJolla, CA, USA).

Compound	IC50 [1] [nM]	IC50 [2] [nM]	GI50 [3] [nM]
O=C1Nc2ccc(F)cc2/C1=C1/Nc2ccccc2/C1=N\OCCN1C[C@@H]2C[C@H]1CN2 [Example 10, (2Z,3E)-3-((2-((1S,4S)-2,5-diazabicyclo[2.2.1]heptan-2-yl)ethoxy)imino)-5′-fluoro-[2,3′-biindolinylidene]-2′-one]	2.41	0.815	0.685
O=C1Nc2ccc(F)cc2/C1=C1/Nc2ccccc2/C1=N\OCCN[C@H]1[C@@H]2CNC[C@@H]21 [Example 7, (2Z,3E)-3-((2-((1R,5S,6s)-3-azabicyclo[3.1.0]hexan-6-ylamino)ethoxy)imino)-5′-fluoro-[2,3′-biindolinylidene]-2′-one]	1.47	1.03	5.65
